Our source for the solubility in water values is patent US11344521B2, “Methods for the treatment of leptomeningeal disease” (priority 2017, dated 2022).

The nature of this data set: Solubility in water. It counts as physicochemical.

Turning to `NC(=O)C(CCC(=O)[O-])NC(=O)Cc1ccccc1.[Na+]` (stereo not shown) [Iso-PG, phenylacetylisoglutaminate sodium], the solubility in water entry is “soluble in water”.
